Article PMC6609550, “Blockade of the forward Na^+/Ca^2+ exchanger suppresses the growth of glioblastoma cells through Ca^2+‐mediated cell death” (British Journal of Pharmacology, 2019)

Legend:
Format in all cases: cell-based, Human
[Ca^2+]i in U87 cells = Ca2+ imaging (Fluo-4 AM) of U87 cells; details: for Effect on [Ca2+]i level in Ca2+-free solution / Effect on intracellular Ca2+ pool and ER Ca2+ transporting: Ca2+‐free solution; for Effect on intracellular Ca2+ pool and ER Ca2+ transporting: followed by 5‐μM thapsigargin; for Effect on [Ca2+]i level: solution containing 2‐mM Ca2+, bepridil or KB‐R7943 25 or 50 μM, CB‐DMB 2 and 4 μM
Experimental: Cells were cultured in 96‐well plates at 8 × 10^3 per well and loaded with the cell membrane‐permeable Ca^2+ dye Fluo‐4 AM (5 μM) in 100‐μl HEPES‐buffered solution for 50 min. The solution contained (mM): 135 NaCl, 3 KCl, 2 CaCl2, 1 MgCl2, 10 glucose, and 10 HEPES, supplemented with 1% FBS at pH 7.4. To prepare the Ca^2+‐free solution, 2‐mM CaCl2 was replaced with 1‐mM EGTA in the HEPES‐buffered solution. The 96‐well plate containing the Fluo‐4 AM‐loaded cells was mounted in a Leica TCS SP8 confocal system (Leica Microsystems, Wetzlar, Germany). The confocal microscope armed with 488‐nm laser light was employed to excite the dynamic fluorescent signals in time and synchronously, while test regents were added to cells. To do Na^+ imaging, Fluo‐4 AM was replaced with the cell membrane‐permeable Na^+ dye Asante NaTrium Green‐2 AM (ANG‐2 AM) at 5 μM, which was excited by 514‐nm laser light. Visual inspection and fluorescent imaging were carried out at room temperature. The imaging data were analysed with the software https://leica-las-af-lite.software.informer.com/ 2.5 (Leica). The imaging traces shown are representative of at least three separate experiments; 12–18 cells were imaged in each experiment.

forward NCX = assay: Whole-cell patch-clamp recording of forward-mode NCX currents in U87 cells; details: forward NCX current measured at −110 mV, mean ± SEM, n = 4, read-out: IC50, blocking forward NCX (currents)
Experimental: (§1) Whole‐cell patch‐clamp recording was performed using a Multiclamp 700B amplifier (Molecular Devices, Foster City, CA, USA) at room temperature. Voltage protocols were provided and current recorded via a DigiData‐1550B interface (Molecular Devices) controlled by pClamp 10 Software (Molecular Devices, RRID:SCR_011323). […] Internal solution consisted of (in mM): 120 CsCl, 20 NaCl, 2 MgCl2, 13 CaCl2, 2 Na2ATP, 20 BAPTA, and 10 HEPES at a pH 7.2. […] Series resistance was compensated by 75–85%. Linear leak and residual capacitance currents were subtracted online using a P/4 protocol of the pClamp 10. For the recording of the membrane currents related to the NCX, cells were held at −50 mV and depolarized to +60 mV, and then a voltage ramp starting from +60 to −120 mV was applied for 1,000 ms before returning back to −50 mV. The reverse and forward NCX currents were measured at +50 and −110 mV holding potentials respectively (Molinaro et al., 2008; Rahman, Inman, Kiss, & Janssen, 2012; Song, Chen, & Yu, 2014). Data were filtered at 3 KHz and digitized at sampling rates of 20 KHz. For drug application, cells were perfused with a VC‐6 Six Channel Perfusion Valve Control Systems (Warner Instruments, Greenwich, CT, USA) connected to a gravity‐fed perfusion systems.
(§2) Data are expressed as mean ± SEM and analysed by Prism 7 software, La Jolla, CA (GraphPad Prism, RRID:SCR_002798). The data and statistical analysis comply with the recommendations of the British Journal of Pharmacology on experimental design and analysis in pharmacology. Concentrations of the NCX blockers (IC50) exerting half‐maximal inhibition of NCX currents were obtained by fitting the concentration–response with the equation: I/I0*100%=Bottom+Top−Bottom/1+10^((^Log^IC50−C)*n) , where I 0 and I are current amplitudes measured in control and in the presence of NCX blockers, C is the logarithm of concentration, and n is the Hill coefficient. The statistical difference between two independent groups was analysed by Student's parametric unpaired t test. And the original data of more than two groups were assessed by the parametric one‐way ANOVA followed by a Tukey's post hoc test. The data for cell viability and Western blot were usually normalized to the control group, and were thus analysed by the non‐parametric Kruskal–Wallis test followed by a Dunn's post hoc test. Differences were considered to be significant when P < .05. Post hoc tests were conducted when the F value achieved the necessary level (P < .05) and there was no significant variance inhomogeneity.
(§3) We characterized the membrane currents associated with NCX activity in glioblastoma cells using whole‐cell patch‐clamp recording. […] The NCX current in its reverse mode (Ca^2+ entry) was measured at +50, and the forward‐mode current (Ca^2+ exit) was measured at −110 mV. The Ni^2+ (10 mM) was employed to inhibit and identify the NCX currents in its either reverse or forward mode as previously reported (Maack, Ganesan, Sidor, & O'Rourke, 2005).

reverse NCX = assay: Whole-cell patch-clamp recording of reverse-mode NCX currents in U87 cells; details: reverse NCX current measured at +50 mV, mean ± SEM, n = 4, read-out: IC50, blocking reverse NCX (currents)
Experimental: as §1, §2, §3

U87 cells = assay: Cell viability assay (Cell Counting Kit-8), U87; details: for IC50: 72 hr, CCK-8, mean ± SEM
Experimental: Cell viability was determined by using a Cell Counting Kit‐8 (Dojindo, Japan). Briefly, cells were harvested from flasks and plated in 96‐well cell culture plates at 5 × 10^3 per well and cultured overnight. […] Control cells were treated with cell culture medium and measured at the same time point as treatment groups. CCK‐8 solution (10 μl) was added to each well of the 96‐well plates, and the cultures were incubated for 30 min at 37°C. Absorbance at 450 nm was measured using an automatic microplate reader (Molecular Devices, San Jose, CA, USA).
Figure 2 Effect of the Na^+/Ca^2+ exchanger (NCX) blockers on viability of human glioblastoma cell lines. (a, b) Viability of adult glioblastoma cell lines (U87 and U251) after exposure to NCX blockers bepridil, KB‐R7943, SEA0400, SN‐6, or YM244769 at 0–100 μM for 72 hr. n = 5 independent tests per group. (c) Viability of paediatric glioblastoma cell line SF188 after 72‐hr incubation with the same NCX blockers at 0–100 μM. n = 5 independent tests per group. (d) For U87, U251, and SF188 cell lines, concentration of the NCX blockers required to produce half maximal inhibition (IC50: μM, mean ± SEM) of cell viability.

Compound	Effect on [Ca2+]i level in Ca2+-free solution ([Ca^2+]i in U87 cells)	Effect on intracellular Ca2+ pool and ER Ca2+ transporting ([Ca^2+]i in U87 cells)	Effect on [Ca2+]i level ([Ca^2+]i in U87 cells)	IC50 (forward NCX)	IC50 (reverse NCX)	Effect on growth (viability) of U87 cells (U87 cells; 25 μM, 48 hr)	IC50 (U87 cells; Homo sapiens, U-87 MG)	IC50 (U87 cells)
CC(C)COCC(CN(Cc1ccccc1)c1ccccc1)N1CCCC1 (stereo not shown) [Bepridil, N‐benzyl‐N‐(3‐isobutoxy‐2‐pyrrolidin‐1‐yl‐propyl)aniline]	did not show [Ca^2+]i elevation or fluctuation	neither bepridil nor KB‐R7943 affect intracellular Ca^2+ pool and Ca^2+ transporting on the ER membrane	quick [Ca^2+]i increase and sustained [Ca^2+]i elevation	19.1 ± 1.2 µM	15.6 ± 1.1 µM	markedly suppressed growth	18.6 ± 1.1 µM	
CS(=O)(=O)O.N=C(N)SCCc1ccc(OCc2ccc([N+](=O)[O-])cc2)cc1 [KB‐R7943, 2‐[4‐[(4‐nitrophenyl)methoxy]phenyl]ethyl ester carbamimidothioic acid methanesulfonate]	did not show [Ca^2+]i elevation or fluctuation	neither bepridil nor KB‐R7943 affect intracellular Ca^2+ pool and Ca^2+ transporting on the ER membrane	a short [Ca^2+]i descent in the beginning and a slow [Ca^2+]i increases ensuing	32.3 ± 1.3 µM	14.3 ± 1.2 µM			26.6 ± 1.4 µM
